Key:
Format in all cases: cell-based, Human
MCF-7 [1] = assay: Photodynamic therapy in 3D cultured breast cancer tissue, live/dead staining; conditions: 3D tissue, perfusion 4 hours, broadband halogen light 1 minute, stained after overnight culture
Experimental: A photosensitizer precursor drug, aminolevulinic acid (5-ALA) was supplemented in the culture media delivered to a 3D cultured breast cancer tissue (MCF-7), and allowed to infiltrate the tissue via perfusion for 4 hours to emulate microinjection. After cellular uptake, 5-ALA was converted into photosensitive protoporphyrin (PpIX). […] High ROS concentrations led to cell destruction. To determine the extent of cell damage, the culture was stained with a live/dead staining kit (Sigma) after overnight culture and examined with a Leica confocal microscope.

MCF-7 [2] = assay: Photodynamic therapy in 2D culture, live/dead staining
Text: […] After cellular uptake, 5-ALA was converted into photosensitive protoporphyrin (PpIX). […] High ROS concentrations led to cell destruction. To determine the extent of cell damage, the culture was stained with a live/dead staining kit (Sigma) after overnight culture and examined with a Leica confocal microscope.

MCF-7 [3] = assay: Drug evaluation in microfluidic 3D breast cancer tissue culture (tissue nodules); conditions: flow 0.8 μL/min, one week, 3D microfluidic culture
Experimental: Human breast cancer cells (from immortalized cell line MCF-7) were incubated in a tissue culture chamber for 2 weeks with a continuous media flow at 0.8 μL/min. Initial cell attachment was seen across the entire chamber surface and continuously proliferated over time to form a 3D tissue layer having a depth of about 70-100 μm. […] These structures were similar to those observed in the earliest stages of tumor formation. A majority of the cells remained viable.
In contrast to pure cultures of breast cancer cells, co-cultures with stromal cells stimulate breast cancer cells. […] At three weeks of incubation, the nodule-like structures had become large enough to be recognized under a microscope, reaching 80-150 μm in diameter. Based on histological staining, the organization of these cells was consistent with their cancerous origin. The cells appeared to be transformed, having an increased nuclear/cytoplasmic ratio, and the cell mass was disorganized.
Doxorubicin (Dox), a known anticancer drug, was first tested using the microfluidic breast tissue culture described in the preceding examples. Dox was delivered to the tissue nodules at 10 nM and 1 μM, respectively, at a flow rate of 0.8 μL/min of medium via the inlet for one week.
A new lytic anticancer peptide (L5) was designed and synthesized to interact with cell membranes and therefore disrupt membrane integrity and destroy cells. The peptide drug was delivered to the tissue nodules at 30 μg/mL in the medium at a flow rate of 0.8 μL/min of medium via inlet for 2 days. […] Occasionally, some nuclei were still seen in the remaining tissue matrix. […] This may be due to a reduced rate of diffusion of the drug to the area of the surviving cells. This finding highlights the value of using the microfluidic culture model for drug assessment as it provides a more accurate representation of the 3D cellular organization encountered in vivo. It also hints at a plausible explanation to why some breast cancer therapies fail in vivo or why recurrence and multidrug resistance occurs after chemotherapy. […]

How did the “cells killed after PDT treatment” value (MCF-7 [1]) turn out when NCC(=O)CCC(=O)O [5-ALA, aminolevulinic acid] was run?
The value was “about 50%”.

What about the “cells killed after PDT treatment” value (MCF-7 [2]) of the same compound?
The value was “about 70%”.

COc1cccc2c1C(=O)c1c(O)c3c(c(O)c1C2=O)C[C@@](O)(C(=O)CO)C[C@@H]3O[C@H]1C[C@H](N)[C@H](O)[C@H](C)O1 [Dox, Doxorubicin] was tested. Which “progression of tumor nodules (real-time images)” value (MCF-7 [3]; 10 nM in medium) did it give?
The value was “continuous progression of tumor nodules was observed”.

What about the “formation of dark nodules (real-time images)” value (MCF-7 [3]; 1 μM in medium) of the same compound?
The value was “No obvious formation of dark nodules was observed”.

And the tissue growth (MCF-7 [3]; 1 μM in medium)?
Its tissue growth is “continuous tissue growth was noticed”.

From patent publication US20130143230A1, “MICROFLUIDIC-BASED CELL-CULTURING PLATFORM AND METHOD” (The Trustees of the Stevens Institute of Technology, priority 2011, published 2013)
